Target: His-tagged N-terminal ATP binding domain (amino acid residues 9-236) of HSP90α (Homo sapiens, UniProt P07900)
Assay: HSP90 inhibitor binding potency: TRF competition binding assay
Settings: Table I; read-out: Hsp90 IC50 Range
Protocol: HSP90 Inhibitor Binding Potency: TRF Binding Assay
In this example, the binding potency of HSP90 inhibitors as measured by a TRF binding assay is described.
TRF competition binding assays were performed to determine the binding potency (IC50 values) of HSP90 inhibitors. Purified His-tagged N-terminal ATP binding domain (amino acid residues 9-236) of HSP90α (HSP90α GeneID: 3320; mRNA Sequence NM_005348) was incubated for two hours at room temperature in binding buffer (50 mM HEPES, 6 mM MgCl2, 20 mM KCl and 0.1% BSA) with biotinylated radicicol and progressively higher concentrations of the competing compounds. A fraction of the mixture was transferred to capture plates (coated with streptavidin) and incubated for one hour at room temperature. After washing with DELFIA wash buffer, europium-labeled anti-his antibody was added and incubated for two hours at room temperature, followed by washing with DELFIA buffer. DELFIA enhancement solution was then added. After gentle shaking for 10 minutes, the plates were read in VICTOR for europium counts.

IC50	Compound
< 1000 nM	Cc1nc(N)nc2c1C(=O)CC(c1ccccc1-c1cccc(F)c1F)C2 (centres unmarked) [Compound 83, 2-amino-7-(2′,3′-difluoro-1,1′-biphenyl-2-yl)-4-methyl-7,8-dihydroquinazolin-5(6H)-one]
< 1000 nM	Cc1nc(N)nc2c1C(=O)CC(c1ccccc1-c1ccc(F)cc1F)C2 (centres unmarked) [Compound 84, 2-amino-7-(2′,4′-difluoro-1,1′-biphenyl-2-yl)-4-methyl-7,8-dihydroquinazolin-5(6H)-one]
< 1000 nM	Cc1nc(N)nc2c1C(=O)CC(c1ccccc1-c1c(F)cccc1F)C2 (centres unmarked) [Compound 85, 2-amino-7-(2′,6′-difluoro-1,1′-biphenyl-2-yl)-4-methyl-7,8-dihydroquinazolin-5(6H)-one]
< 1000 nM	Cc1nc(N)nc2c1C(=O)CC(c1ccc(F)cc1-c1ccccc1F)C2 (centres unmarked) [Compound 86, 2-amino-7-(5,2′-difluoro-biphenyl-2-yl)-4-methyl-7,8-dihydro-6H-quinazolin-5-one]
< 1000 nM	Cc1nc(N)nc2c1C(=O)CC(c1ccc(F)cc1-c1cccnc1F)C2 (centres unmarked) [Compound 87, 2-amino-7-[4-fluoro-2-(2-fluoropyridin-3-yl)phenyl]-4-methyl-7,8-dihydroquinazolin-5(6H)-one]
< 1000 nM	Cc1nc(N)nc2c1C(=O)CC(c1cc(F)ccc1-c1cccnc1F)C2 (centres unmarked) [Compound 88, 2-amino-7-[5-fluoro-2-(2-fluoropyridin-3-yl)phenyl]-4-methyl-7,8-dihydroquinazolin-5(6H)-one]
< 1000 nM	Cc1nc(N)nc2c1C(=O)CC(c1ccc(F)cc1-c1cccc(F)n1)C2 (centres unmarked) [Compound 89, 2-amino-7-[4-fluoro-2-(6-fluoro-pyridin-2-yl)-phenyl]-4-methyl-7,8-dihydro-6H-quinazolin-5-one]
< 1000 nM	Cc1nc(N)nc2c1C(=O)CC(c1ccccc1-c1ccccc1C(N)=O)C2 (centres unmarked) [Compound 90, 2′-(2-amino-4-methyl-5-oxo-5,6,7,8-tetrahydroquinazolin-7-yl)-1,1′-biphenyl-2-carboxamide]
1000 to 10000 nM	Cc1nc(N)nc2c1C(=O)CC(c1ccccc1-c1cccc(C(N)=O)c1)C2 (centres unmarked) [Compound 91, 2′-(2-amino-4-methyl-5-oxo-5,6,7,8-tetrahydroquinazolin-7-yl)-1,1′-biphenyl-3-carboxamide]
1000 to 10000 nM	CC(=O)c1cccc(-c2ccccc2C2CC(=O)c3c(C)nc(N)nc3C2)n1 (centres unmarked) [Compound 92, 7-[2-(6-acetylpyridin-2-yl)phenyl]-2-amino-4-methyl-7,8-dihydroquinazolin-5(6H)-one]
> 10000 nM	Cc1nc(N)nc2c1C(=O)CC(c1ccccc1-c1cccc(N(C)C)c1)C2 (centres unmarked) [Compound 93, 2-amino-7-[3′-(dimethylamino)-1,1′-biphenyl-2-yl]-4-methyl-7,8-dihydroquinazolin-5(6H)-one]
1000 to 10000 nM	CCOc1cccc(-c2ccccc2C2CC(=O)c3c(C)nc(N)nc3C2)n1 (centres unmarked) [Compound 94, 2-amino-7-[2-(6-ethoxy-pyridin-2-yl)-phenyl]-4-methyl-7,8-dihydro-6H-quinazolin-5-one]
< 1000 nM	COc1ccccc1-c1cc(F)ccc1C1CC(=O)c2c(C)nc(N)nc2C1 (centres unmarked) [Compound 95, 2-amino-7-(5-fluoro-2′-methoxy-biphenyl-2-yl)-4-methyl-7,8-dihydro-6H-quinazolin-5-one]
< 1000 nM	COc1ccc(F)cc1-c1ccccc1C1CC(=O)c2c(C)nc(N)nc2C1 (centres unmarked) [Compound 96, 2-amino-7-(5′-fluoro-2′-methoxy-1,1′-biphenyl-2-yl)-4-methyl-7,8-dihydroquinazolin-5(6H)-one]
< 1000 nM	COc1cccc(-c2cccnc2F)c1C1CC(=O)c2c(C)nc(N)nc2C1 (centres unmarked) [Compound 97, 2-amino-7-[2-(2-fluoropyridin-3-yl)-6-methoxyphenyl]-4-methyl-7,8-dihydroquinazolin-5(6H)-one]
< 1000 nM	COc1ccc(-c2cccnc2F)c(C2CC(=O)c3c(C)nc(N)nc3C2)c1 (centres unmarked) [Compound 98, 2-amino-7-[2-(2-fluoropyridin-3-yl)-5-methoxyphenyl]-4-methyl-7,8-dihydroquinazolin-5(6H)-one]
< 1000 nM	COc1ncccc1-c1cc(F)ccc1C1CC(=O)c2c(C)nc(N)nc2C1 (centres unmarked) [Compound 99, 2-amino-7-[4-fluoro-2-(2-methoxy-pyridin-3-yl)-phenyl]-4-methyl-7,8-dihydro-6H-quinazolin-5-one]
1000 to 10000 nM	Cc1nc(N)nc2c1C(=O)CC(c1ccccc1-c1cncc3ccccc13)C2 (centres unmarked) [Compound 100, 2-amino-7-(2-isoquinolin-4-ylphenyl)-4-methyl-7,8-dihydroquinazolin-5(6H)-one]
< 1000 nM	Cc1nc(N)nc2c1C(=O)CC(c1ccccc1-c1cc(F)cnc1Cl)C2 (centres unmarked) [Compound 101, 2-amino-7-[2-(2-chloro-5-fluoropyridin-3-yl)phenyl]-4-methyl-7,8-dihydroquinazolin-5(6H)-one]
1000 to 10000 nM	CC(=O)Nc1cccc(-c2ccccc2C2CC(=O)c3c(C)nc(N)nc3C2)c1 (centres unmarked) [Compound 102, N-[2′-(2-amino-4-methyl-5-oxo-5,6,7,8-tetrahydroquinazolin-7-yl)-1,1′-biphenyl-3-yl]acetamide]
1000 to 10000 nM	CC(=O)Nc1ccccc1-c1ccccc1C1CC(=O)c2c(C)nc(N)nc2C1 (centres unmarked) [Compound 103, N-[2′-(2-amino-4-methyl-5-oxo-5,6,7,8-tetrahydroquinazolin-7-yl)-1,1′-biphenyl-2-yl]acetamide]
> 10000 nM	COC(=O)c1cccc(-c2ccccc2C2CC(=O)c3c(C)nc(N)nc3C2)c1 (centres unmarked) [Compound 104, methyl 2′-(2-amino-4-methyl-5-oxo-5,6,7,8-tetrahydroquinazolin-7-yl)-1,1′-biphenyl-3-carboxylate]
< 1000 nM	COc1cccc(-c2ccccc2CO)c1C1CC(=O)c2c(C)nc(N)nc2C1 (centres unmarked) [Compound 105, 2-amino-7-[2′-(hydroxymethyl)-3-methoxy-1,1′-biphenyl-2-yl]-4-methyl-7,8-dihydroquinazolin-5(6H)-one]
< 1000 nM	COc1cccc(-c2ccccc2CO)c1C1CC(=O)c2c(C)nc(N)nc2C1 (centres unmarked) [Compound 106, 2-amino-7-[2′-(hydroxymethyl)-3-methoxy-1,1′-biphenyl-2-yl]-4-methyl-7,8-dihydroquinazolin-5(6H)-one]
1000 to 10000 nM	COc1ccc(-c2ccccc2C2CC(=O)c3c(C)nc(N)nc3C2)c(OC)c1 (centres unmarked) [Compound 107, 2-amino-7-(2′,4′-dimethoxy-1,1′-biphenyl-2-yl)-4-methyl-7,8-dihydroquinazolin-5(6H)-one]
< 1000 nM	COc1ccc(-c2cccnc2Cl)c(C2CC(=O)c3c(C)nc(N)nc3C2)c1 (centres unmarked) [Compound 108, 2-amino-7-[2-(2-chloropyridin-3-yl)-5-methoxyphenyl]-4-methyl-7,8-dihydroquinazolin-5(6H)-one]
< 1000 nM	Cc1nc(N)nc2c1C(=O)CC(c1ccccc1-c1ccccc1C(F)(F)F)C2 (centres unmarked) [Compound 109, 2-amino-4-methyl-7-[2′-(trifluoromethyl)-1,1′-biphenyl-2-yl]-7,8-dihydroquinazolin-5(6H)-one]
1000 to 10000 nM	Cc1nc(N)nc2c1C(=O)CC(c1ccccc1-c1cccc(C(F)(F)F)c1)C2 (centres unmarked) [Compound 110, 2-amino-4-methyl-7-[3′-(trifluoromethyl)-1,1′-biphenyl-2-yl]-7,8-dihydroquinazolin-5(6H)-one]
< 1000 nM	Cc1nc(N)nc2c1C(=O)CC(c1ccccc1-c1ccccc1OC(F)(F)F)C2 (centres unmarked) [Compound 111, 2-amino-4-methyl-7-[2′-(trifluoromethoxy)-1,1′-biphenyl-2-yl]-7,8-dihydroquinazolin-5(6H)-one]
